The text below walks through data of publication PMC5391171 (Journal of molecular and cellular cardiology, 2016).

The target of experiment [1] is cChimera (cNTnC-cTnI [136–163] chimera) (Homo sapiens, UniProt P19429+P63316, C35S/C84S). As to the kind of experiment: NMR titration. The format is binding.
For experiment [2], the system named is cardiac isoform of troponin. As to conditions: cited from earlier work.
The mark [3] stands for this setting: titration monitored by chemical shift changes.

Turning to `Clc1cccc(Nc2ccccc2)c1` [3-chlorodiphenylamine], in experiment [1], the affinity, expressed as Kd, was 10 µM.

`Cc1ccc(S(=O)(=O)Nc2ccc(Nc3ccccc3)cc2)cc1` [NSC41053]: the “Binding to cChimera” value in experiment [1] (setting [3]) is reported as “NSC41053 Weak binding (very small chemical shift changes that could not be fit to a saturating curve, indicating a KD > 2 mM)”.

In the case of `O=[N+]([O-])c1cccc(Cc2ccc(Cc3cccc([N+](=O)[O-])c3)cc2)c1` [NSC89784], the “Binding to cChimera” value in experiment [1] (setting [3]) is “NSC89784 Weak binding (very small chemical shift changes that could not be fit to a saturating curve, indicating a KD > 2 mM)”.

With `O=C(O)c1ccccc1Nc1ccccc1` [NSC215211], the dissociation constant Kd in experiment [1] is 800 µM.

Turning to `c1ccc(CNCc2ccccc2)cc1` [dibenzylamine], the “Binding to cChimera” value in experiment [1] (addition of a methylene carbon relative to benzylaniline) is on record as “completely abolished binding”.

As for `C#Cc1cnc2nc(O)n(C(CC)CC)c2n1` [tirasemtiv], the “activity towards the cardiac isoform of troponin” value in experiment [2] is on record as “no activity”.
